For eleven compounds, Activity results are on record in ChEMBL document CHEMBL3046469, “Fungicidal Activities of 2-(Substituted Phenoxymethyl)phenyl-2-methoxyiminoacaetamide Derivatives” (1998).

What all share (assay type): functional
The subject of test [1] is Blumeria graminis f. sp. tritici. The experiment in a line: Fungicidal activity against Blumeria graminis f. sp. tritici assessed as wheat powdery mildew disease control at 2 ppm foliar application for 48 hr before inoculation by preventive manner.
For test [2], the system named is Podosphaera fuliginea. The experiment in a line: Fungicidal activity against Podosphaera fuliginea assessed as cucumber powdery mildew control at 2 ppm foliar application 24 hr after inoculation at 23 +/- 2 degC by curative manner.
For test [3], the system named is Pyricularia oryzae. The experiment in a line: Fungicidal activity against Magnaporthe oryzae assessed as rice blast disease control at 2 ppm foliar application for 24 hr after inoculation at 27 +/- 2 degC measured after 5 days by curative manner.
The test system of test [4] is Botrytis cinerea. Kind of test: Fungicidal activity against Botryotinia fuckeliana assessed as cucumber gray mold disease control at 7.8 ppm foliar application […] at 22 +/- 2 degC by preventive manner.
Test [5] concerns Podosphaera fuliginea. The experiment in a line: Fungicidal activity against Podosphaera fuliginea assessed as cucumber powdery mildew control at 2 ppm foliar application 24 hr before inoculation at 23 +/- 2 degC by preventive manner.
For test [6], the system named is Pseudoperonospora cubensis. The experiment in a line: Fungicidal activity against Pseudoperonospora cubensis assessed as cucumber downy mildew disease control at 2 ppm foliar application 24 hr before inoculation onto the adaxial(treated) surface of leaf by preventive manner.
In test [7] the test system is Pyricularia oryzae. Kind of test: Fungicidal activity against Magnaporthe oryzae assessed as rice blast disease control at 2 ppm foliar application for 24 hr before inoculation at 27 +/- 2 degC measured after 5 days by preventive manner.
Test [8] concerns Blumeria graminis f. sp. tritici. Kind of test: Fungicidal activity against Blumeria graminis f. sp. tritici assessed as wheat powdery mildew disease control at 2 ppm foliar application for 48 hr after inoculation by curative manner.
Test [9] concerns Thanatephorus cucumeris. Kind of test: Fungicidal activity against Thanatephorus cucumeris assessed as rice sheath blight disease control at 7.8 ppm foliar application for 24 hr before inoculation at 26 +/- 2 degC measured after 5 days by preventive manner.
The test system of test [10] is Botrytis cinerea. The experiment in a line: Fungicidal activity against Botryotinia fuckeliana assessed as cucumber gray mold disease control at 2 ppm foliar application […] at 22 +/- 2 degC by curative manner.
Test [11] relates to Pseudoperonospora cubensis. The experiment in a line: Fungicidal activity against Pseudoperonospora cubensis assessed as cucumber downy mildew disease control at 7.8 ppm foliar application 24 hr before inoculation onto the abaxial(untreated) surface of leaf by preventive manner.
Test [12] has as its system Pyricularia oryzae. Kind of test: Fungicidal activity against Magnaporthe oryzae assessed as rice blast disease control at 31.3 ppm foliar application for 24 hr before inoculation at 27 +/- 2 degC measured after 5 days by preventive manner.
Test [13] deals with Thanatephorus cucumeris. The experiment in a line: Fungicidal activity against Thanatephorus cucumeris assessed as rice sheath blight disease control at 125 ppm foliar application for 24 hr before inoculation at 26 +/- 2 degC measured after 5 days by preventive manner.
Test [14] concerns Pyricularia oryzae. The experiment in a line: Fungicidal activity against Magnaporthe oryzae assessed as rice blast disease control at 7.8 ppm foliar application for 24 hr after inoculation at 27 +/- 2 degC measured after 5 days by curative manner.
For test [15], the system named is Podosphaera fuliginea. Kind of test: Fungicidal activity against Podosphaera fuliginea assessed as cucumber powdery mildew control at 7.8 ppm foliar application 24 hr before inoculation at 23 +/- 2 degC by preventive manner.
Test [16] concerns Pseudoperonospora cubensis. The experiment in a line: Fungicidal activity against Pseudoperonospora cubensis assessed as cucumber downy mildew disease control at 125 ppm foliar application 24 hr before inoculation onto the abaxial(untreated) surface of leaf by preventive manner.
In test [17] the test system is Pseudoperonospora cubensis. The experiment in a line: Fungicidal activity against Pseudoperonospora cubensis assessed as cucumber downy mildew disease control at 7.8 ppm foliar application 24 hr before inoculation onto the adaxial(treated) surface of leaf by preventive manner.
Test [18] relates to Botrytis cinerea. The experiment in a line: Fungicidal activity against Botryotinia fuckeliana assessed as cucumber gray mold disease control at 31.3 ppm foliar application […] at 22 +/- 2 degC by preventive manner.
The subject of test [19] is Pseudoperonospora cubensis. The experiment in a line: Fungicidal activity against Pseudoperonospora cubensis assessed as cucumber downy mildew disease control at 31.3 ppm foliar application 24 hr before inoculation onto the abaxial(untreated) surface of leaf by preventive manner.
Test [20] relates to Blumeria graminis f. sp. tritici. Kind of test: Fungicidal activity against Blumeria graminis f. sp. tritici assessed as wheat powdery mildew disease control at 7.8 ppm foliar application 48 hr after inoculation by curative manner.
Test [21] relates to Podosphaera fuliginea. The experiment in a line: Fungicidal activity against Podosphaera fuliginea assessed as cucumber powdery mildew control at 7.8 ppm foliar application 24 hr after inoculation at 23 +/- 2 degC by curative manner.
The subject of test [22] is Botrytis cinerea. Kind of test: Fungicidal activity against Botryotinia fuckeliana assessed as cucumber gray mold disease control at 7.8 ppm foliar application […] at 22 +/- 2 degC by curative manner.
Test [23] deals with Pyricularia oryzae. The experiment in a line: Fungicidal activity against Magnaporthe oryzae assessed as rice blast disease control at 7.8 ppm foliar application for 24 hr before inoculation at 27 +/- 2 degC measured after 5 days by preventive manner.
Test [24] concerns Thanatephorus cucumeris. Kind of test: Fungicidal activity against Thanatephorus cucumeris assessed as rice sheath blight disease control at 31.3 ppm foliar application for 24 hr before inoculation at 26 +/- 2 degC measured after 5 days by preventive manner.
In test [25] the test system is Pseudoperonospora cubensis. The experiment in a line: Fungicidal activity against Pseudoperonospora cubensis assessed as cucumber downy mildew disease control at 2 ppm foliar application 24 hr before inoculation onto the abaxial(untreated) surface of leaf by preventive manner.
Test [26] has as its system Botrytis cinerea. The experiment in a line: Fungicidal activity against Botryotinia fuckeliana assessed as cucumber gray mold disease control at 2 ppm foliar application […] at 22 +/- 2 degC by preventive manner.
Test [27] concerns Pyricularia oryzae. The experiment in a line: Fungicidal activity against Magnaporthe oryzae assessed as rice blast disease control at 125 ppm foliar application for 24 hr before inoculation at 27 +/- 2 degC measured after 5 days by preventive manner.
Test [28] has as its system Pyricularia oryzae. Kind of test: Fungicidal activity against Magnaporthe oryzae assessed as rice blast disease control at 125 ppm foliar application for 24 hr after inoculation at 27 +/- 2 degC measured after 5 days by curative manner.
Test [29] deals with Podosphaera fuliginea. Kind of test: Fungicidal activity against Podosphaera fuliginea assessed as cucumber powdery mildew control at 31.3 ppm foliar application 24 hr after inoculation at 23 +/- 2 degC by curative manner.
Test [30] deals with Podosphaera fuliginea. The experiment in a line: Fungicidal activity against Podosphaera fuliginea assessed as cucumber powdery mildew control at 31.3 ppm foliar application 24 hr before inoculation at 23 +/- 2 degC by preventive manner.
In test [31] the test system is Pyricularia oryzae. The experiment in a line: Fungicidal activity against Magnaporthe oryzae assessed as rice blast disease control at 31.3 ppm foliar application for 24 hr after inoculation at 27 +/- 2 degC measured after 5 days by curative manner.
The subject of test [32] is Blumeria graminis f. sp. tritici. The experiment in a line: Fungicidal activity against Blumeria graminis f. sp. tritici assessed as wheat powdery mildew disease control at 7.8 ppm foliar application 48 24 hr before inoculation by preventive manner.
Test [33] has the same test system. The experiment in a line: Fungicidal activity against Blumeria graminis f. sp. tritici assessed as wheat powdery mildew disease control at 31.3 ppm foliar application for 48 hr after inoculation by curative manner.

`CNC(=O)/C(=N/OC)c1ccccc1COc1cc(C)ccc1C`: the Activity (in [1]; with Podosphaera fuliginea [2]; with Pyricularia oryzae [3]; in the test on Botrytis cinerea [4]; with Podosphaera fuliginea [5]; in test [6]) was 90% throughout. Also, the Activity (in the test on Pyricularia oryzae [7]; in test [8]; in the test with Thanatephorus cucumeris [9]; in the test with Botrytis cinerea [10]; in test [11]) was 90% in each case.

Regarding `CNC(=O)/C(=N/OC)c1ccccc1COc1ccc(Cl)cc1`, the Activity (in [1]; with Podosphaera fuliginea [2]; in the test with Botrytis cinerea [4]; in the test on Podosphaera fuliginea [5]; in test [6]; in test [8]) was 90% in each case. The Activity with Botrytis cinerea [10] is 90%; in [11], 90%; in the test on Pyricularia oryzae [12] it was 90%; in the test with Thanatephorus cucumeris [13], less than 90%; with Pyricularia oryzae [14] it was 90%.

Take `CNC(=O)/C(=N/OC)c1ccccc1COc1ccccc1C(F)(F)F`: the Activity (in test [1]; with Podosphaera fuliginea [15]; in test [16]; with Pyricularia oryzae [7]; in test [17]; in the test with Thanatephorus cucumeris [9]) was 90% each time. Besides, the Activity with Botrytis cinerea [18] is 90%.

For `CNC(=O)/C(=N/OC)c1ccccc1COc1cccc(OC(C)C)c1`, the Activity (in test [1]; in [19]; in [20]; with Podosphaera fuliginea [15]; in the test with Botrytis cinerea [4]; in the test on Podosphaera fuliginea [21]) was 90% throughout. The Activity (in test [17]; in the test with Botrytis cinerea [22]; in the test on Thanatephorus cucumeris [13]; in the test on Pyricularia oryzae [14]; in the test with Pyricularia oryzae [23]) was 90% throughout.

Take `CNC(=O)/C(=N/OC)c1ccccc1COc1ccc(-c2ccccc2)cc1`: the Activity (in test [1]; in the test on Thanatephorus cucumeris [24]; in test [20]; in the test with Podosphaera fuliginea [2]; in the test on Pyricularia oryzae [3]; in the test on Botrytis cinerea [4]) was 90% throughout. The Activity (in the test on Podosphaera fuliginea [5]; in test [16]; in test [6]; with Pyricularia oryzae [7]; in the test with Botrytis cinerea [22]) was 90% throughout.

Turning to `CNC(=O)/C(=N/OC)c1ccccc1COc1cc(Cl)ccc1Cl`, the Activity (in test [1]; in [25]; in the test on Thanatephorus cucumeris [24]; with Botrytis cinerea [4]; in the test on Podosphaera fuliginea [5]; in test [6]) was 90% in each case. In the test with Pyricularia oryzae [12], the Activity is 90%.

As for `CNC(=O)/C(=N/OC)c1ccccc1COc1ccc(C)cc1C`, the Activity (in test [1]; with Botrytis cinerea [26]; in the test on Podosphaera fuliginea [15]; in test [16]; in test [6]; with Thanatephorus cucumeris [9]) was 90% in each case. Moreover, the Activity in the test with Pyricularia oryzae [27] came to 90%.

`CNC(=O)/C(=N/OC)c1ccccc1COc1cc(C)cc(C)c1C`: the Activity (in [1]; with Botrytis cinerea [26]; in the test on Podosphaera fuliginea [5]; in [16]; in test [6]; with Thanatephorus cucumeris [9]) was 90% in each case. Further, the Activity in the test with Pyricularia oryzae [23] is given as 90%.

With `CO/N=C(/C(N)=O)c1ccccc1COc1cc(C)ccc1C`, the Activity in the test on Podosphaera fuliginea [21], in the test with Podosphaera fuliginea [5], in the test on Botrytis cinerea [22], in the test with Pyricularia oryzae [12], in the test on Pyricularia oryzae [14] and in the test on Botrytis cinerea [18] was 90% throughout.

As to `CNC(=O)/C(=N\OC)c1ccccc1COc1cc(C)ccc1C`, the Activity (in [1]; in test [20]; in the test on Pyricularia oryzae [28]; with Podosphaera fuliginea [15]; in the test on Botrytis cinerea [4]; in the test on Podosphaera fuliginea [21]) was 90% throughout. The Activity in the test with Botrytis cinerea [22] and in the test on Pyricularia oryzae [12] was 90% each time.

As for `CNC(=O)/C(=N/OC)c1ccccc1COc1ccccc1`, the Activity (in the test on Podosphaera fuliginea [29]; in [19]; in the test with Podosphaera fuliginea [30]; in the test with Pyricularia oryzae [31]; in [17]; in the test with Botrytis cinerea [22]) was 90% each time. The Activity (in test [32]; with Pyricularia oryzae [12]; in [33]; with Thanatephorus cucumeris [13]; in the test with Botrytis cinerea [18]) was 90% throughout.
